PubChem BioAssay AID2060607 (Molecular Pharmacology Branch, DTP, NCI, 2025)

System: 876862-298-R-J1-PDC complex spheroids, viability % test/control
Experiment: Anticancer human tumor 876862-298-R-J1-PDC patient-derived endometrial carcinoma cell line growth inhibition [CLK]
Settings: for IC50: curve of first compound; for viability, T/C: stronger effect = lower value
In short: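 Patient-derived tumor cells grown as complex spheroids with HUVEC endothelial cells and mesenchymal stem cells, treated with drug combinations. Concentrations descend in half-log steps from near clinical Cmax, or from 10 microM if Cmax unknown.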
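Note: spheroids exposed to drugs for 7 days before readout.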
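Throughout, for viability, T/C: 100% = DMSO vehicle control wells.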

## COc1ccc([C@@H](O)c2cc(-c3ncnc4cc(N5CCOCC5)ccc34)c(F)cc2Cl)nn1 + CNC(=O)c1ccc(Nc2nc(OC3CCCC3)c3c(-c4ccc5nc(C)oc5c4)c[nH]c3n2)c(OC)c1
Second compound 0.0316 µM
  IC50: 3010 nM
Second compound 0.1 µM
  IC50: 81.2 nM
Second compound 0.316 µM
  IC50: < 31.6 nM
Second compound 1 µM
  IC50: < 31.6 nM
Second compound 3.16 µM
  IC50: < 31.6 nM
Second compound 10 µM
  IC50: < 31.6 nM
Second compound 0.0316 µM, first compound 0.0316 µM
  viability, T/C: 72%
Second compound 0.0316 µM, first compound 0.1 µM
  viability, T/C: 84.4%
Second compound 0.0316 µM, first compound 0.316 µM
  viability, T/C: 69.5%
Second compound 0.0316 µM, first compound 1 µM
  viability, T/C: 66.1%
Second compound 0.0316 µM, first compound 3.16 µM
  viability, T/C: 49.4%
Second compound 0.0316 µM, first compound 10 µM
  viability, T/C: 30.5%
Second compound 0.1 µM, first compound 0.0316 µM
  viability, T/C: 50.6%
Second compound 0.1 µM, first compound 0.1 µM
  viability, T/C: 49.3%
Second compound 0.1 µM, first compound 0.316 µM
  viability, T/C: 48.7%
Second compound 0.1 µM, first compound 1 µM
  viability, T/C: 38.8%
Second compound 0.1 µM, first compound 3.16 µM
  viability, T/C: 34%
Second compound 0.1 µM, first compound 10 µM
  viability, T/C: 26.8%
Second compound 0.316 µM, first compound 0.0316 µM
  viability, T/C: 47%
Second compound 0.316 µM, first compound 0.1 µM
  viability, T/C: 39.7%
Second compound 0.316 µM, first compound 0.316 µM
  viability, T/C: 47.7%
Second compound 0.316 µM, first compound 1 µM
  viability, T/C: 33.2%
Second compound 0.316 µM, first compound 3.16 µM
  viability, T/C: 27.1%
Second compound 0.316 µM, first compound 10 µM
  viability, T/C: 21.6%
Second compound 1 µM, first compound 0.0316 µM
  viability, T/C: 31.9%
Second compound 1 µM, first compound 0.1 µM
  viability, T/C: 28.8%
Second compound 1 µM, first compound 0.316 µM
  viability, T/C: 30.4%
Second compound 1 µM, first compound 1 µM
  viability, T/C: 26.8%
Second compound 1 µM, first compound 3.16 µM
  viability, T/C: 21.1%
Second compound 1 µM, first compound 10 µM
  viability, T/C: 15.5%
Second compound 3.16 µM, first compound 0.0316 µM
  viability, T/C: 25%
Second compound 3.16 µM, first compound 0.1 µM
  viability, T/C: 21.2%
Second compound 3.16 µM, first compound 0.316 µM
  viability, T/C: 18.5%
Second compound 3.16 µM, first compound 1 µM
  viability, T/C: 20.3%
Second compound 3.16 µM, first compound 3.16 µM
  viability, T/C: 17.2%
Second compound 3.16 µM, first compound 10 µM
  viability, T/C: 11.9%
Second compound 10 µM, first compound 0.0316 µM
  viability, T/C: 23.2%
Second compound 10 µM, first compound 0.1 µM
  viability, T/C: 19.2%
Second compound 10 µM, first compound 0.316 µM
  viability, T/C: 17.9%
Second compound 10 µM, first compound 1 µM
  viability, T/C: 16.3%
Second compound 10 µM, first compound 3.16 µM
  viability, T/C: 17%
Second compound 10 µM, first compound 10 µM
  viability, T/C: 10.2%
